Reference: ChEMBL document CHEMBL5576045, “M1/M4 receptors as potential therapeutic treatments for schizophrenia: A comprehensive study” (Bioorg Med Chem, 2024)

Biological target: T1, Muscarinic acetylcholine receptor M4 (Homo sapiens) (UniProt P08173)
T1 sequence (whole entry): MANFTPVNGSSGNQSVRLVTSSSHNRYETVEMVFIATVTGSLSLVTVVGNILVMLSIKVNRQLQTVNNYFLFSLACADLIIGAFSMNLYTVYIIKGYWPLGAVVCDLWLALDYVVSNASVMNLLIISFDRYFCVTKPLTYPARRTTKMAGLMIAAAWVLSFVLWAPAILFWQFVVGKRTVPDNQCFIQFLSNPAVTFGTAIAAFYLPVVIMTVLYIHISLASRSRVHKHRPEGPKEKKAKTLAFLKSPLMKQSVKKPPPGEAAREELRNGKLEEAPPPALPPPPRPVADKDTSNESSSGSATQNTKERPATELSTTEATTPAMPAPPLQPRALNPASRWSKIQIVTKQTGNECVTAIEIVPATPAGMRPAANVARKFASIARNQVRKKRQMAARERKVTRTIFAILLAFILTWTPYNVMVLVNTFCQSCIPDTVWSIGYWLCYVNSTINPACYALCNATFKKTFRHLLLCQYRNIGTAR
Assay: Binding affinity to M4 receptor (unknown origin) assessed as fold change in presence of acetylcholine

fold change (FC): 3
Structure (SMILES): CC1=C(CCO)SC2=Nc3nc(C)ncc3CN21
